What was measured:
D3dgpA [1] = target: T1, D3dgpA (human intestinal bacterium PUE, UniProt A0A3Q9WWX8); assay: HPLC of […]”-oxo-puerarin formation with and without monosaccharide; assay type: biochemical; conditions: 400 eq puerarin and methyl β-D-3-oxo-glucopyranoside, 800 eq monosaccharide to enzyme; 5 mM HEPES pH 7.5, 36.5°C, 10 min
T1 construct: gene dgpA; full length, 367 residues; His6-tag; pET-duet 1 (EcoRI/SalI), E. coli BL21 (DE3), Ni-NTA; about 45 kD; hexamer in solution; co-purifies with NAD(H)
T1 sequence (A0A3Q9WWX8 1-367): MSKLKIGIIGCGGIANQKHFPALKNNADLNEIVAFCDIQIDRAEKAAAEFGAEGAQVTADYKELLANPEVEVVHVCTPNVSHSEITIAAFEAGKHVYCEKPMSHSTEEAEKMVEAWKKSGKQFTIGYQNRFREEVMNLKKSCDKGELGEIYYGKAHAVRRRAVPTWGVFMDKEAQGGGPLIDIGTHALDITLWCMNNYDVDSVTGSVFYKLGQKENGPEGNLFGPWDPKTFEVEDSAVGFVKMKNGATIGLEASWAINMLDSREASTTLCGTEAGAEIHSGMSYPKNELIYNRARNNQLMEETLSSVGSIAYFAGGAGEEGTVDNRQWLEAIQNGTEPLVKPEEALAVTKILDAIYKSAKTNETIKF

D3dgpA [2] = target: T1, D3dgpA; assay: HPLC analysis of nucleotide co-purified with enzyme; assay type: binding; conditions: bound in purified enzyme as isolated
[3] = target: D3dgpA, Gfo/Idh/MocA family glycoside oxidoreductase (dgpA cloned from Dorea sp. MRG-IFC3) (Dorea sp. MRG-IFC3); assay: not stated; purified His6-tagged D3dgpA in solution; the method is shown only in Supplementary Figure S5
purified protein = substrate: O=c1c(-c2ccc(O)cc2)coc2c([C@@H]3O[C@H](CO)[C@@H](O)[C@H](O)[C@H]3O)c(O)ccc12; assay: purified protein; assay type: biochemical, human intestinal bacterium PUE; conditions: co-substrate 760 μM methyl β-D-3-oxo-glucopyranoside, 5 mM HEPES pH 7.5, 5 mM NaCl, 36.5°C

`OC[C@H]1OC(O)[C@H](O)[C@@H](O)[C@@H]1O` (stereo partly drawn) [D-glucose] was tested, and the relative inhibition (D3dgpA [1]) was “D-glucose exhibited the most inhibitory effects on the oxidation of puerarin”.

With `NC(=O)c1ccc[n+]([C@@H]2O[C@H](COP(=O)(O)OP(=O)(O)OC[C@H]3O[C@@H](n4cnc5c(N)ncnc54)[C@H](O)[C@@H]3O)[C@@H](O)[C@H]2O)c1` [NAD^+] the “HPLC analysis of nucleotide co-purified with enzyme” value (D3dgpA [2]) was “The purified D3dgpA was found to contain an almost equimolar amount of NAD(H)”.

In the case of `O[C@@H]1[C@@H](O)[C@@H]2OC[C@@H](O2)[C@H]1O` [levoglucosan], the relative inhibition (D3dgpA [1]) is reported as “decreased in the order of D-glucose > methyl ß-glucoside > methyl α-glucoside ≈ levoglucosan”.

`CO[C@H]1O[C@H](CO)[C@@H](O)[C@H](O)[C@H]1O` [methyl α-glucopyranoside] was tested, and the relative inhibition (D3dgpA [1]) was “decreased in the order of D-glucose > methyl ß-glucoside > methyl α-glucoside ≈ levoglucosan”.

With `CO[C@@H]1O[C@H](CO)[C@@H](O)[C@H](O)[C@H]1O` [methyl β-glucopyranoside] the relative inhibition (D3dgpA [1]) was “decreased in the order of D-glucose > methyl ß-glucoside > methyl α-glucoside ≈ levoglucosan”.

Work on “D3dgpA, Gfo/Idh/MocA family glycoside oxidoreductase (dgpA cloned from Dorea sp. MRG-IFC3) (enzyme)” yielded a stoichiometry N [3] of 6.

B1: D3dgpA (human intestinal bacterium PUE) (protein)
chain: T1 sequence (A0A3Q9WWX8 1-367)
notes: full length, 367 residues; His6-tag; pET-duet 1 (EcoRI/SalI), E. coli BL21 (DE3), Ni-NTA; about 45 kD; hexamer in solution; co-purifies with NAD(H)
Molecule B1 has a Km (purified protein) of 250 µM and a kcat (purified protein) of 32 s⁻¹.
